Source: patent US20230278984A1 (Global Blood Therapeutics, Inc., priority 2020, published 2023)

Target: T1, Human pyruvate kinase R (PKR) (Homo sapiens, UniProt P30613)
T1 construct: Human pyruvate kinase R (PKR), residues 14-574; 6x-His (N, cleaved yes); 8x-Arg (N, cleaved yes); SUMO (N, cleaved yes); host or cells: E. coli
Experiment: Biochemical assay for activation of pyruvate kinase R (Kinase-Glo luminescence measurement of ATP generation)
Details: for AC50: PKR biochemical assay, 0.1 nM PKR, 0.3 mM ADP, 2 mM FBP, 0.1 mM PEP; for Emax: maximal activation level relative to the activation level achieved by the literature compound AG-348 @ 10 μM
Description: Human pyruvate kinase R (PKR), residues 14-574, and human pyruvate kinase M2, residues 1-531, were cloned into expression plasmids and obtained from ATUM Bio (Newark, Calif.). Proteins were translated as fusions with 6×-His, 8×-Arg, and SUMO at the N-terminus. A third construct of human PKR was truncated, residues 50-574, and similarly cloned for use in crystallography experiments. All proteins were cloned, expressed in E. coli, and purified using similar protocols. Cells were grown at 30° C. in Luria-Bertani broth supplemented with 0.4% glucose to OD600=0.8 and induced with 0.4 mM IPTG at 16° C. for 18 hours. Cells were harvested by centrifugation, resuspended in 50 mM potassium phosphate pH 8.0, 500 mM NaCl, 25 mM imidazole pH 8.0, and 3 mM (3-mercaptoethanol. Cells were lysed using a LM20 microfluidizer from Microfluidics (Westwood, Mass.). The crude lysate was immediately supplemented with 0.2 mM phenylmethylsulfonyl fluoride (PMSF) and centrifuged at 20,000 g for 20 minutes. The soluble fraction was subsequently incubated with 2 mL Ni-NTA (GE Healthcare) per 1,000 ODs for 1 hour at 4° C. Following incubation with the Ni-NTA resin, lysate was removed by pelleting resin at 2,500 g for 3 minutes and washed 3 times with 9 bed volumes of 50 mM potassium phosphate pH 8.0, 500 mM NaCl, 25 mM imidazole, and 3 mM 3-mercaptoethanol. Following the batch wash Ni-NTA resin was loaded onto a gravity column and His-tagged protein was eluted with 6 bed volumes of 10 mM Tris/HCl pH 8.0, 200 mM NaCl, 500 mM imidazole, and 3 mM (3-mercaptoethanol. Eluted protein was dialyzed overnight against 10 mM Tris/HCl pH 8.0, 200 mM NaCl, and 1 mM DTT and the 6×-His-8×-Arg-SUMO-tag was cleaved using a 20:1 molar ratio of protein:3C protease. The protein was purified by anion exchange chromatography on a HiTrapQ or MonoQ 10/100 GL column (GE Healthcare) via a linear NaCl gradient and twice by size exclusion chromatography using a Superdex S200 26/60 column (GE Healthcare) run in 10 mM Tris/HCl pH 8.0, 200 mM NaCl, 10 mM MgCl2, 1 mM DTT. Proteins were concentrated to −12 mg/mL for crystallization and flash frozen for storage.
Biochemical Assay for Activation of Pyruvate Kinase R
Activation of pyruvate kinase R (PKR) and pyruvate kinase M2 (PKM2) were measured using a luminescence based measurement of ATP generation and the Kinase-Glo luminescent kinase reagent kit.

T1 sequence (P30613 14-574): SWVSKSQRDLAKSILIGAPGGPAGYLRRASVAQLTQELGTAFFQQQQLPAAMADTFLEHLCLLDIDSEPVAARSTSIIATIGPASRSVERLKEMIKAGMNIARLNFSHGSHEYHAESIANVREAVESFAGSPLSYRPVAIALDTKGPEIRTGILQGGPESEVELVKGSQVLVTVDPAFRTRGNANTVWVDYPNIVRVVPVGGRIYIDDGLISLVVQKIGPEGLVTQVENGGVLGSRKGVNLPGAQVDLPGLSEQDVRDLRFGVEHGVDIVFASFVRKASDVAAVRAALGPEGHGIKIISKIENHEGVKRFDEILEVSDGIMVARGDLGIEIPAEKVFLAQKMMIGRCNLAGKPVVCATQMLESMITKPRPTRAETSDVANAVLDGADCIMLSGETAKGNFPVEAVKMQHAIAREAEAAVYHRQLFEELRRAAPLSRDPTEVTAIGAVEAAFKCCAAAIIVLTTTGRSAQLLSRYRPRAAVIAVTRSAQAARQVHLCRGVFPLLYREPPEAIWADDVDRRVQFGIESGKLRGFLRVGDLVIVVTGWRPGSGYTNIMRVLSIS

Compound | AC50 [nM] | Emax [%]
O=C(NCc1nnnn1-c1ccc(Cl)cc1)NCc1nnnn1-c1ccc(Cl)cc1 [Compound 1, 1,3-bis({[1-(4-chlorophenyl)-1H-1,2,3,4-tetrazol-5-yl]methyl})urea] | 189 | 96
O=C(NCc1nnnn1-c1cccc(Cl)c1)NCc1nnnn1-c1cccc(Cl)c1 [Compound 2, 1,3-bis({[1-(3-chlorophenyl)-1H-1,2,3,4-tetrazol-5-yl]methyl})urea] | 530 | 69
O=C1N(Cc2nnnn2-c2ccc(Cl)cc2)CCCN1Cc1nnnn1-c1ccc(Cl)cc1 [Compound 3, 1,3-bis({[1-(4-chlorophenyl)-1H-1,2,3,4-tetrazol-5-yl]methyl})-1,3-diazinan-2-one] | 6000 | 53
O=C1N(Cc2nnnn2-c2ccc(Cl)c(F)c2)CCCN1Cc1nnnn1-c1ccc(Cl)c(F)c1 [Compound 4, 1,3-bis({[1-(4-chloro-3-fluorophenyl)-1H-1,2,3,4-tetrazol-5-yl]methyl})-1,3-diazinan-2-one] | 1200 | 80
O=C(NCc1ncnn1-c1ccc(Cl)c(F)c1)NCc1ncnn1C1CCOCC1 [Compound 5, 3-{[1-(4-chloro-3-fluorophenyl)-1H-1,2,4-triazol-5-yl]methyl}-1-{[1-(oxan-4-yl)-1H-1,2,4-triazol-5-yl]methyl}urea] | 420 | 47
O=C1N(Cc2ncnn2-c2ccc(Cl)c(F)c2)CCCN1Cc1ncnn1-c1ccc(Cl)c(F)c1 [Compound 6, 1,3-bis({[1-(4-chloro-3-fluorophenyl)-1H-1,2,4-triazol-5-yl]methyl})-1,3-diazinan-2-one] | 5.4 | 33
O=C(NCc1ncnn1CC1CCOCC1)NCc1ncnn1-c1ccc(Cl)c(F)c1 [Compound 7, 3-{[1-(4-chloro-3-fluorophenyl)-1H-1,2,4-triazol-5-yl]methyl}-1-({1-[(oxan-4-yl)methyl]-1H-1,2,4-triazol-5-yl}methyl)urea] | 44 | 46
CCN(Cc1ncnn1-c1ccc(Cl)c(F)c1)C(=O)NCc1ncnn1CC1CCOCC1 [Compound 8, 3-{[1-(4-chloro-3-fluorophenyl)-1H-1,2,4-triazol-5-yl]methyl}-3-ethyl-1-({1-[(oxan-4-yl)methyl]-1H-1,2,4-triazol-5-yl}methyl)urea] | 320 | 59
CCN(Cc1ncnn1CC1CCOCC1)C(=O)NCc1ncnn1-c1ccc(Cl)c(F)c1 [Compound 9, 3-{[1-(4-chloro-3-fluorophenyl)-1H-1,2,4-triazol-5-yl]methyl}-1-ethyl-1-({1-[(oxan-4-yl)methyl]-1H-1,2,4-triazol-5-yl}methyl)urea] | 120 | 64
Cc1nc(CNC(=O)NCc2ncnn2CC2CCOCC2)n(-c2ccc(Cl)c(F)c2)n1 [Compound 10, 3-{[1-(4-chloro-3-fluorophenyl)-3-methyl-1H-1,2,4-triazol-5-yl]methyl}-1-({1-[(oxan-4-yl)methyl]-1H-1,2,4-triazol-5-yl}methyl)urea] | 80 | 74
CC1(Cn2ncnc2CNC(=O)NCc2ncnn2-c2ccc(Cl)c(F)c2)CCOCC1 [Compound 11, 3-{[1-(4-chloro-3-fluorophenyl)-1H-1,2,4-triazol-5-yl]methyl}-1-({1-[(4-methyloxan-4-yl)methyl]-1H-1,2,4-triazol-5-yl}methyl)urea] | 88 | 49
Cc1nc(CNC(=O)NCc2ncnn2CC2(C)CCOCC2)n(-c2ccc(Cl)c(F)c2)n1 [Compound 12, 3-{[1-(4-chloro-3-fluorophenyl)-3-methyl-1H-1,2,4-triazol-5-yl]methyl}-1-({1-[(4-methyloxan-4-yl)methyl]-1H-1,2,4-triazol-5-yl}methyl)urea] | 180 | 89
CC1(C)CC(Cn2ncnc2CNC(=O)NCc2ncnn2-c2ccc(Cl)c(F)c2)CCO1 (centres unmarked) [Compound 13, 3-{[1-(4-chloro-3-fluorophenyl)-1H-1,2,4-triazol-5-yl]methyl}-1-({1-[(2,2-dimethyloxan-4-yl)methyl]-1H-1,2,4-triazol-5-yl}methyl)urea] | 1000 | 55
Cc1nc(CNC(=O)NCc2ncnn2CC2CCOC(C)(C)C2)n(-c2ccc(Cl)c(F)c2)n1 (centres unmarked) [Compound 14, 3-{[1-(4-chloro-3-fluorophenyl)-3-methyl-1H-1,2,4-triazol-5-yl]methyl}-1-({1-[(2,2-dimethyloxan-4-yl)methyl]-1H-1,2,4-triazol-5-yl}methyl)urea] | 1400 | 84

The next lines start with the values.

AC50 [nM] | Emax [%] | Compound
310 | 57 | O=C(NCc1ncnn1CC1CCOCC1)NCc1ncnn1-c1ccc2cccnc2c1 [Compound 15, 3-({1-[(oxan-4-yl)methyl]-1H-1,2,4-triazol-5-yl}methyl)-1-{[1-(quinolin-7-yl)-1H-1,2,4-triazol-5-yl]methyl}urea]
55 | 93 | Cc1nc(CNC(=O)NCc2ncnn2CC2CCCCC2)n(-c2ccc(Cl)c(F)c2)n1 [Compound 16, 3-{[1-(4-chloro-3-fluorophenyl)-3-methyl-1H-1,2,4-triazol-5-yl]methyl}-1-{[1-(cyclohexylmethyl)-1H-1,2,4-triazol-5-yl]methyl}urea]
13 | 82 | Cc1nc(CNC(=O)NCc2ncnn2-c2ccc3scnc3c2)n(-c2ccc(Cl)c(F)c2)n1 [Compound 17, 1-{[1-(1,3-benzothiazol-5-yl)-1H-1,2,4-triazol-5-yl]methyl}-3-{[1-(4-chloro-3-fluorophenyl)-3-methyl-1H-1,2,4-triazol-5-yl]methyl}urea]
37 | 85 | Cc1nc(CNC(=O)NCc2ncnn2Cc2ccccc2)n(-c2ccc(Cl)c(F)c2)n1 [Compound 18, 1-[(1-benzyl-1H-1,2,4-triazol-5-yl)methyl]-3-{[1-(4-chloro-3-fluorophenyl)-3-methyl-1H-1,2,4-triazol-5-yl]methyl}urea]
51 | 97 | Cc1nc(CNC(=O)NCc2ncnn2Cc2ccc(F)cc2)n(-c2ccc(Cl)c(F)c2)n1 [Compound 20, 3-{[1-(4-chloro-3-fluorophenyl)-3-methyl-1H-1,2,4-triazol-5-yl]methyl}-1-({1-[(4-fluorophenyl)methyl]-1H-1,2,4-triazol-5-yl}methyl)urea]
33 | 83 | Cc1nc(CNC(=O)N(C)Cc2ncnn2-c2ccc3scnc3c2)n(-c2ccc(Cl)c(F)c2)n1 [Compound 22, 1-{[1-(1,3-benzothiazol-5-yl)-1H-1,2,4-triazol-5-yl]methyl}-3-{[1-(4-chloro-3-fluorophenyl)-3-methyl-1H-1,2,4-triazol-5-yl]methyl}-1-methylurea]
230 | 72 | Cc1nc(CNC(=O)NCc2ncnn2CC2(O)CCCCC2)n(-c2ccc(Cl)c(F)c2)n1 [Compound 23, 3-{[1-(4-chloro-3-fluorophenyl)-3-methyl-1H-1,2,4-triazol-5-yl]methyl}-1-({1-[(1-hydroxycyclohexyl)methyl]-1H-1,2,4-triazol-5-yl}methyl)urea]
24 | 75 | Cc1nc(CNC(=O)NCc2ncnn2-c2ccc3c(c2)OCC3)n(-c2ccc(Cl)c(F)c2)n1 [Compound 24, 3-{[1-(4-chloro-3-fluorophenyl)-3-methyl-1H-1,2,4-triazol-5-yl]methyl}-1-{[1-(2,3-dihydro-1-benzofuran-6-yl)-1H-1,2,4-triazol-5-yl]methyl}urea]
2500 | 80 | O=C(NCc1nnnn1-c1ccc(Cl)cc1F)NCc1nnnn1-c1ccc(Cl)cc1F [Compound 25, 1,3-bis({[1-(4-chloro-2-fluorophenyl)-1H-1,2,3,4-tetrazol-5-yl]methyl})urea]
73 | 93 | CN(Cc1nnnn1-c1ccc(Cl)c(F)c1)C(=O)NCc1nnnn1-c1ccc(Cl)c(F)c1 [Compound 26, 1,3-bis({[1-(4-chloro-3-fluorophenyl)-1H-1,2,3,4-tetrazol-5-yl]methyl})-1-methylurea]
5.4 | 33 | CN(Cc1ncnn1-c1ccc(Cl)c(F)c1)C(=O)NCc1ncnn1-c1ccc(Cl)c(F)c1 [Compound 27, 1,3-bis({[1-(4-chloro-3-fluorophenyl)-1H-1,2,4-triazol-5-yl]methyl})-1-methylurea]
